According to patent publication US20250144094A1 (Erasca, Inc., priority 2021, published 2025):

What follows are molecules tested against Recombinant human ULK1 (1-649) (Homo sapiens (Human), UniProt O75385) (assay: ULK1 ADP Glo kinase activity assay, new method (ULKtide peptide substrate)). Settings: 25° C., 40 minutes, read-out: ULK1 biochemical IC50.
Summary of the method: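 Kinase activity was read as ADP production (ADP-Glo, luminescence 30 min after detection reagent) following a 40-min, 25 °C reaction of Sf9-expressed GST-ULK1 (1-649) with ULKtide substrate and ATP. Compounds ran as 12-point series starting at 10 μM; four-parameter curve fitting versus DMSO wells gave IC50.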

Sequence of Recombinant human ULK1 (1-649) (O75385 1-649): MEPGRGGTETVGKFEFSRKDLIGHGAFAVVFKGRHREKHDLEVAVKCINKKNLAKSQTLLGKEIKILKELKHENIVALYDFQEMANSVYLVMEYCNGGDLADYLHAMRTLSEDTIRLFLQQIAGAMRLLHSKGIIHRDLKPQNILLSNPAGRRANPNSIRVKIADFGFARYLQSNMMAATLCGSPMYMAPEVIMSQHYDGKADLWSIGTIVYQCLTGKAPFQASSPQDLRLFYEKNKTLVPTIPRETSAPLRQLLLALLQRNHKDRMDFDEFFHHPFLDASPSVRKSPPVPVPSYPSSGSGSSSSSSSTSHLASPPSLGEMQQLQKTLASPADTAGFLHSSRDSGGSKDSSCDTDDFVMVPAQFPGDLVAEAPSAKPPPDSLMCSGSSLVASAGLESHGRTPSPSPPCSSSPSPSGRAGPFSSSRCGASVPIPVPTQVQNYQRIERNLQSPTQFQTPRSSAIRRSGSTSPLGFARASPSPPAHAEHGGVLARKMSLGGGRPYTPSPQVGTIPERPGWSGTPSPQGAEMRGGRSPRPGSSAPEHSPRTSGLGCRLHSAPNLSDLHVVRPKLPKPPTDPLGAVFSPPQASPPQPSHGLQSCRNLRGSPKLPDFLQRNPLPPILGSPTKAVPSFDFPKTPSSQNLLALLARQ

Structure (SMILES)	IC50
O=C1c2sc(-c3nc(Nc4ccc(N5CC6CC(C5)N6)cc4C4CC4)ncc3C(F)(F)F)cc2S(=O)(=O)CCN1C1COC1 [Example 340, 7-(2-((4-(3,6-diazabicyclo[3.1.1]heptan-3-yl)-2-cyclopropylphenyl)amino)-5-(trifluoromethyl)pyrimidin-4-yl)-4-(oxetan-3-yl)-3,4-dihydrothieno[2,3-f][1,4]thiazepin-5(2H)-one 1,1-dioxide]	≤ 5 nM
N#CCN1CCc2cc(Nc3ncc(C(F)(F)F)c(-c4cc5c(s4)C(=O)N(C4CC4)CCS5(=O)=O)n3)c(C3CC3)cc2C1 [Example 276, 2-(7-cyclopropyl-6-((4-(4-cyclopropyl-1,1-dioxido-5-oxo-2,3,4,5-tetrahydrothieno[2,3-f][1,4]thiazepin-7-yl)-5-(trifluoromethyl)pyrimidin-2-yl)amino)-3,4-dihydroisoquinolin-2(1H)-yl)acetonitrile]	10 to 50 nM
CN1CCS(=O)(=O)c2cc(-c3nc(Nc4cc5c(cc4Cl)CNCC5)ncc3C(F)(F)F)sc2C1=O [Example 156, 7-(2-((7-chloro-1,2,3,4-tetrahydroisoquinolin-6-yl)amino)-5-(trifluoromethyl)pyrimidin-4-yl)-4-methyl-3,4-dihydrothieno[2,3-f][1,4]thiazepin-5(2H)-one 1,1-dioxide]	≤ 5 nM
O=S1(=O)CCOCc2sc(-c3nc(Nc4cc5c(cc4Cl)CNCC5)ncc3C(F)(F)F)cc21 [Example 163, 7-(2-((7-chloro-1,2,3,4-tetrahydroisoquinolin-6-yl)amino)-5-(trifluoromethyl)pyrimidin-4-yl)-2,3-dihydro-5H-thieno[3,2-e][1,4]oxathiepine 1,1-dioxide]	≤ 5 nM
O=C1c2sc(-c3nc(Nc4ccc(N5C[C@H]6CC[C@@H](C5)N6)cc4C4CC4)ncc3C(F)(F)F)cc2S(=O)(=O)CCN1C1COC1 [Example 318, 7-(2-((4-((1R,5S)-3,8-diazabicyclo[3.2.1]octan-3-yl)-2-cyclopropylphenyl)amino)-5-(trifluoromethyl)pyrimidin-4-yl)-4-(oxetan-3-yl)-3,4-dihydrothieno[2,3-f][1,4]thiazepin-5(2H)-one 1,1-dioxide]	≤ 5 nM
CSc1cc2c(cc1Nc1ncc(C(F)(F)F)c(-c3cc4c(s3)C(=O)N(C3CC3)CCS4(=O)=O)n1)CCNC2 [Example 247, 4-cyclopropyl-7-(2-((7-(methylthio)-1,2,3,4-tetrahydroisoquinolin-6-yl)amino)-5-(trifluoromethyl)pyrimidin-4-yl)-3,4-dihydrothieno[2,3-f][1,4]thiazepin-5(2H)-one 1,1-dioxide]	≤ 5 nM
CCc1cc(N2CCN(CC)CC2)ccc1Nc1ncc(C(F)(F)F)c(-c2cc3c(s2)C(=O)N(C2CC2)CCS3(=O)=O)n1 [Example 271, 4-cyclopropyl-7-(2-((2-ethyl-4-(4-ethylpiperazin-1-yl)phenyl)amino)-5-(trifluoromethyl)pyrimidin-4-yl)-3,4-dihydrothieno[2,3-f][1,4]thiazepin-5(2H)-one 1,1-dioxide]	≤ 5 nM
CN1CCS(=O)(=O)c2cc(-c3nc(Nc4cc5c(cc4Cl)CN(CC4CC4)CC5)ncc3C(F)(F)F)sc2C1=O [Example 246, 7-(2-((7-chloro-2-(cyclopropylmethyl)-1,2,3,4-tetrahydroisoquinolin-6-yl)amino)-5-(trifluoromethyl)pyrimidin-4-yl)-4-methyl-3,4-dihydrothieno[2,3-f][1,4]thiazepin-5(2H)-one 1,1-dioxide]	≤ 5 nM
CCc1cc2c(cc1Nc1ncc(C(F)(F)F)c(-c3cc4c(s3)C(=O)N(C3CC3)CCS4(=O)=O)n1)CCN(CC1COC1)C2 [Example 277, 4-cyclopropyl-7-(2-((7-ethyl-2-(oxetan-3-ylmethyl)-1,2,3,4-tetrahydroisoquinolin-6-yl)amino)-5-(trifluoromethyl)pyrimidin-4-yl)-3,4-dihydrothieno[2,3-f][1,4]thiazepin-5(2H)-one 1,1-dioxide]	≤ 5 nM
CN1CCS(=O)(=O)c2cc(-c3nc(Nc4cc5c(cc4F)CNC5)ncc3C(F)(F)F)sc2C1=O [Example 157, 7-(2-((6-fluoroisoindolin-5-yl)amino)-5-(trifluoromethyl)pyrimidin-4-yl)-4-methyl-3,4-dihydrothieno[2,3-f][1,4]thiazepin-5(2H)-one 1,1-dioxide]	≤ 5 nM
CN1CCC(c2ccc(Nc3ncc(C(F)(F)F)c(-c4cc5c(s4)C(=O)N(C4CC4)CCS5(=O)=O)n3)c(C3CC3)c2)CC1 [Example 252, 4-cyclopropyl-7-(2-((2-cyclopropyl-4-(1-methylpiperidin-4-yl)phenyl)amino)-5-(trifluoromethyl)pyrimidin-4-yl)-3,4-dihydrothieno[2,3-f][1,4]thiazepin-5(2H)-one 1,1-dioxide]	≤ 5 nM
CCc1cc(N2CCN(CC3CC3)CC2)ccc1Nc1ncc(C(F)(F)F)c(-c2cc3c(s2)C(=O)N(C2CC2)CCS3(=O)=O)n1 [Example 265, 4-cyclopropyl-7-(2-((4-(4-(cyclopropylmethyl)piperazin-1-yl)-2-ethylphenyl)amino)-5-(trifluoromethyl)pyrimidin-4-yl)-3,4-dihydrothieno[2,3-f][1,4]thiazepin-5(2H)-one 1,1-dioxide]	≤ 5 nM

More lines, now with the values ahead:

IC50	Structure (SMILES)
≤ 5 nM	C[C@@H]1CN(c2ccc(Nc3ncc(C(F)(F)F)c(-c4cc5c(s4)C(=O)N(C4COC4)CCS5(=O)=O)n3)c(C3CC3)n2)CCN1C [Example 376, (R)-7-(2-((2-cyclopropyl-6-(3,4-dimethylpiperazin-1-yl)pyridin-3-yl)amino)-5-(trifluoromethyl)pyrimidin-4-yl)-4-(oxetan-3-yl)-3,4-dihydrothieno[2,3-f][1,4]thiazepin-5(2H)-one 1,1-dioxide]
≤ 5 nM	C[C@H]1CN(c2ccc(Nc3ncc(C(F)(F)F)c(-c4cc5c(s4)C(=O)N(C4CC4)CCS5(=O)=O)n3)c(C3CC3)c2)CCN1 [Example 331, (S)-4-cyclopropyl-7-(2-((2-cyclopropyl-4-(3-methylpiperazin-1-yl)phenyl)amino)-5-(trifluoromethyl)pyrimidin-4-yl)-3,4-dihydrothieno[2,3-f][1,4]thiazepin-5(2H)-one 1,1-dioxide]
≤ 5 nM	O=S1(=O)CCNS(=O)(=O)c2sc(-c3nc(Nc4cc5c(cc4C4CC4)CNCC5)ncc3C(F)(F)F)cc21 [Example 311, 7-(2-((7-cyclopropyl-1,2,3,4-tetrahydroisoquinolin-6-yl)amino)-5-(trifluoromethyl)pyrimidin-4-yl)-3,4-dihydro-2H-thieno[3,2-f][1,5,2]dithiazepine 1,1,5,5-tetraoxide]
≤ 5 nM	O=C1c2sc(-c3nc(Nc4ccc(N5CCN[C@@H](CO)C5)cc4C4CC4)ncc3C(F)(F)F)cc2S(=O)(=O)CCN1C1CC1 [Example 345, (R)-4-cyclopropyl-7-(2-((2-cyclopropyl-4-(3-(hydroxymethyl)piperazin-1-yl)phenyl)amino)-5-(trifluoromethyl)pyrimidin-4-yl)-3,4-dihydrothieno[2,3-f][1,4]thiazepin-5(2H)-one 1,1-dioxide]
≤ 5 nM	C[C@@H]1CN(c2ccc(Nc3ncc(C(F)(F)F)c(-c4cc5c(s4)C(=O)N(C)CCS5(=O)=O)n3)c(C3CC3)c2)CCN1C [Example 378, (R)-7-(2-((2-cyclopropyl-4-(3,4-dimethylpiperazin-1-yl)phenyl)amino)-5-(trifluoromethyl)pyrimidin-4-yl)-4-methyl-3,4-dihydrothieno[2,3-f][1,4]thiazepin-5(2H)-one 1,1-dioxide]
5 to 10 nM	N#CCN1CCc2cc(Nc3ncc(C(F)(F)F)c(-c4cc5c(s4)C(=O)N(C4COC4)CCS5(=O)=O)n3)c(C3CC3)cc2C1 [Example 285, 2-(7-cyclopropyl-6-((4-(4-(oxetan-3-yl)-1,1-dioxido-5-oxo-2,3,4,5-tetrahydrothieno[2,3-f][1,4]thiazepin-7-yl)-5-(trifluoromethyl)pyrimidin-2-yl)amino)-3,4-dihydroisoquinolin-2(1H)-yl)acetonitrile]
> 100 nM	CCc1cc(C2CCN(CC(F)(F)F)CC2)ccc1Nc1ncc(C(F)(F)F)c(-c2cc3c(s2)C(=O)N(C2CC2)CCS3(=O)=O)n1 [Example 288, 4-cyclopropyl-7-(2-((2-ethyl-4-(1-(2,2,2-trifluoroethyl)piperidin-4-yl)phenyl)amino)-5-(trifluoromethyl)pyrimidin-4-yl)-3,4-dihydrothieno[2,3-f][1,4]thiazepin-5(2H)-one 1,1-dioxide]
≤ 5 nM	CN1C[C@H]2C[C@@H]1CN2c1ccc(Nc2ncc(C(F)(F)F)c(-c3cc4c(s3)C(=O)N(C3CC3)CCS4(=O)=O)n2)c(C2CC2)c1 [Example 330, 4-cyclopropyl-7-(2-((2-cyclopropyl-4-((1R,4R)-5-methyl-2,5-diazabicyclo[2.2.1]heptan-2-yl)phenyl)amino)-5-(trifluoromethyl)pyrimidin-4-yl)-3,4-dihydrothieno[2,3-f][1,4]thiazepin-5(2H)-one 1,1-dioxide]
≤ 5 nM	CCc1cc(N2C[C@H]3C[C@@H]2CN3C)ccc1Nc1ncc(C(F)(F)F)c(-c2cc3c(s2)C(=O)N(C2COC2)CCS3(=O)=O)n1 [Example 347, 7-(2-((2-ethyl-4-((1R,4R)-5-methyl-2,5-diazabicyclo[2.2.1]heptan-2-yl)phenyl)amino)-5-(trifluoromethyl)pyrimidin-4-yl)-4-(oxetan-3-yl)-3,4-dihydrothieno[2,3-f][1,4]thiazepin-5(2H)-one 1,1-dioxide]
≤ 5 nM	O=C1c2sc(-c3nc(Nc4ccc(N5C[C@@H]6C[C@H]5CN6)cc4C4CC4)ncc3C(F)(F)F)cc2S(=O)(=O)CCN1C1COC1 [Example 310, 7-(2-((4-((1S,4S)-2,5-diazabicyclo[2.2.1]heptan-2-yl)-2-cyclopropylphenyl)amino)-5-(trifluoromethyl)pyrimidin-4-yl)-4-(oxetan-3-yl)-3,4-dihydrothieno[2,3-f][1,4]thiazepin-5(2H)-one 1,1-dioxide]
